The text below walks through data of patent US20070128217A1 (priority 2003, published 2007).

The test system of experiment [1] is antibodies in sera from SARS patients (sera 1a, 1b, 2, 6, 37, 62, London, SARS-yellow, SARS-green). It is filed as binding, human.
Experiment [2] deals with rabbit serum obtained by immunizing a rabbit with the SARS-CoV strain Frankfurt 1. It counts as binding. Details: Binding of a rabbit serum to linear peptides / Binding of a rabbit serum to looped peptides / Rabbit serum linear peptides / Rabbit serum looped peptides / Binding of a rabbit serum to linear peptides of protein N of SARS-CoV Urbani (Rabbit serum linear peptides) / Binding of a rabbit serum to looped/cyclic peptides of protein N of SARS-CoV Urbani (Rabbit serum looped peptides): unit not given here.

In experiment [3] the test system is control sera (pooled serum of ten healthy LUMC hospital workers; commercial negative donor pooled serum from the Dutch bloodbank). It counts as binding, human.

Consider LRLCAYCCNIVNVSL, for which, in experiment [1], the “Binding of serum 1a to linear peptides of protein E of SARS-CoV Urbani” value was 0.7, the “Binding of serum 1a to looped/cyclic peptides of protein E of SARS-CoV Urbani” value came to 0.7, the “Binding of serum 1b to linear peptides of protein E of SARS-CoV Urbani” value stood at 0.6 and the “Binding of serum 1b to looped/cyclic peptides of protein E of SARS-CoV Urbani” value is given as 0.4. Besides, in experiment [1], the “Binding of serum 2 to linear peptides of protein E of SARS-CoV Urbani” value is on record as 0.4, the “Binding of serum 2 to looped/cyclic peptides of protein E of SARS-CoV Urbani” value was 0.5, the “Binding of serum 6 to linear peptides of protein E of SARS-CoV Urbani” value is 0.6 and the “Binding of serum 6 to looped/cyclic peptides of protein E of SARS-CoV Urbani” value is reported as 0.4. For the same sequence, in experiment [1], the “Binding of serum 37 to linear peptides of protein E of SARS-CoV Urbani” value is recorded as 0.7, the “Binding of serum 37 to looped/cyclic peptides of protein E of SARS-CoV Urbani” value is given as 0.6, the “Binding of serum 62 to linear peptides of protein E of SARS-CoV Urbani” value worked out at 0.7 and the “Binding of serum 62 to looped/cyclic peptides of protein E of SARS-CoV Urbani” value was 0.6. Further, in experiment [1], the “Binding of serum London to linear peptides of protein E of SARS-CoV Urbani” value is reported as 0.5, the “Binding of serum London to looped/cyclic peptides of protein E of SARS-CoV Urbani” value is given as 0.4, the “Binding of serum SARS-green to linear peptides of protein E of SARS-CoV Urbani” value is 0.3 and the “Binding of serum SARS-green to looped/cyclic peptides of protein E of SARS-CoV Urbani” value amounted to 0.6. In addition, in experiment [1], the “Binding of serum SARS-yellow to linear peptides of protein E of SARS-CoV Urbani” value is 0.3 and the “Binding of serum SARS-yellow to looped/cyclic peptides of protein E of SARS-CoV Urbani” value was 0.6. Further, in experiment [2], the “Binding of a rabbit serum to linear peptides” value amounted to 0.6 and the “Binding of a rabbit serum to looped peptides” value turned out to be 0.2. Further, in experiment [3], the “Binding of Control Serum Blood-Bank to Looped peptides” value was found to be 0.6, the “Binding of Control serum Blood-bank to linear peptides” value was 0.8, the “Binding of Control serum LUMC to linear peptides” value was determined as 0.4 and the “Binding of Control serum LUMC to looped peptides” value came out at 0.6.
As for LTALRLCAYCCNIVN, in experiment [1], the “Binding of serum 1a to linear peptides of protein E of SARS-CoV Urbani” value is 0.9, the “Binding of serum 1a to looped/cyclic peptides of protein E of SARS-CoV Urbani” value is 0.6, the “Binding of serum 1b to linear peptides of protein E of SARS-CoV Urbani” value is 0.8 and the “Binding of serum 1b to looped/cyclic peptides of protein E of SARS-CoV Urbani” value came out at 0.4. Besides, in experiment [1], the “Binding of serum 2 to linear peptides of protein E of SARS-CoV Urbani” value is on record as 0.4, the “Binding of serum 2 to looped/cyclic peptides of protein E of SARS-CoV Urbani” value is reported as 0.7, the “Binding of serum 6 to linear peptides of protein E of SARS-CoV Urbani” value turned out to be 0.7 and the “Binding of serum 6 to looped/cyclic peptides of protein E of SARS-CoV Urbani” value amounted to 0.5. In addition, in experiment [1], the “Binding of serum 37 to linear peptides of protein E of SARS-CoV Urbani” value worked out at 0.8, the “Binding of serum 37 to looped/cyclic peptides of protein E of SARS-CoV Urbani” value came out at 0.7, the “Binding of serum 62 to linear peptides of protein E of SARS-CoV Urbani” value was determined as 0.7 and the “Binding of serum 62 to looped/cyclic peptides of protein E of SARS-CoV Urbani” value worked out at 0.7. In experiment [1], the “Binding of serum London to linear peptides of protein E of SARS-CoV Urbani” value stood at 0.5, the “Binding of serum London to looped/cyclic peptides of protein E of SARS-CoV Urbani” value came to 0.3, the “Binding of serum SARS-green to linear peptides of protein E of SARS-CoV Urbani” value was found to be 0.3 and the “Binding of serum SARS-green to looped/cyclic peptides of protein E of SARS-CoV Urbani” value is listed as 0.3. In experiment [1], the “Binding of serum SARS-yellow to linear peptides of protein E of SARS-CoV Urbani” value came to 0.2 and the “Binding of serum SARS-yellow to looped/cyclic peptides of protein E of SARS-CoV Urbani” value was found to be 0.4. In experiment [2], the “Binding of a rabbit serum to linear peptides” value amounted to 0.6 and the “Binding of a rabbit serum to looped peptides” value was found to be 0.4. Further, in experiment [3], the “Binding of Control Serum Blood-Bank to Looped peptides” value is reported as 0.7, the “Binding of Control serum Blood-bank to linear peptides” value was 0.7, the “Binding of Control serum LUMC to linear peptides” value worked out at 0.5 and the “Binding of Control serum LUMC to looped peptides” value amounted to 0.6.
LVTLAILTALRLCAY: in experiment [1], the “Binding of serum 1a to linear peptides of protein E of SARS-CoV Urbani” value turned out to be 0.8, the “Binding of serum 1a to looped/cyclic peptides of protein E of SARS-CoV Urbani” value came out at 0.6, the “Binding of serum 1b to linear peptides of protein E of SARS-CoV Urbani” value is given as 0.5 and the “Binding of serum 1b to looped/cyclic peptides of protein E of SARS-CoV Urbani” value stood at 0.5. Besides, in experiment [1], the “Binding of serum 2 to linear peptides of protein E of SARS-CoV Urbani” value stood at 0.6, the “Binding of serum 2 to looped/cyclic peptides of protein E of SARS-CoV Urbani” value is 1.0, the “Binding of serum 6 to linear peptides of protein E of SARS-CoV Urbani” value is recorded as 0.7 and the “Binding of serum 6 to looped/cyclic peptides of protein E of SARS-CoV Urbani” value is 0.4. In experiment [1], the “Binding of serum 37 to linear peptides of protein E of SARS-CoV Urbani” value stood at 0.7, the “Binding of serum 37 to looped/cyclic peptides of protein E of SARS-CoV Urbani” value is given as 0.7, the “Binding of serum 62 to linear peptides of protein E of SARS-CoV Urbani” value turned out to be 0.7 and the “Binding of serum 62 to looped/cyclic peptides of protein E of SARS-CoV Urbani” value is 0.6. Besides, in experiment [1], the “Binding of serum London to linear peptides of protein E of SARS-CoV Urbani” value was 0.5, the “Binding of serum London to looped/cyclic peptides of protein E of SARS-CoV Urbani” value is listed as 0.4, the “Binding of serum SARS-green to linear peptides of protein E of SARS-CoV Urbani” value is 0.3 and the “Binding of serum SARS-green to looped/cyclic peptides of protein E of SARS-CoV Urbani” value turned out to be 0.6. For the same sequence, in experiment [1], the “Binding of serum SARS-yellow to linear peptides of protein E of SARS-CoV Urbani” value is given as 0.1 and the “Binding of serum SARS-yellow to looped/cyclic peptides of protein E of SARS-CoV Urbani” value worked out at 0.4. In addition, in experiment [2], the “Binding of a rabbit serum to linear peptides” value is 0.4 and the “Binding of a rabbit serum to looped peptides” value was 0.3. Also, in experiment [3], the “Binding of Control Serum Blood-Bank to Looped peptides” value was determined as 0.6, the “Binding of Control serum Blood-bank to linear peptides” value came to 0.6, the “Binding of Control serum LUMC to linear peptides” value was 0.3 and the “Binding of Control serum LUMC to looped peptides” value was determined as 0.8.
Take SEETGTLIVNSVLLF: in experiment [1], the “Binding of serum 1a to linear peptides of protein E of SARS-CoV Urbani” value stood at 0.9, the “Binding of serum 1a to looped/cyclic peptides of protein E of SARS-CoV Urbani” value is 0.4, the “Binding of serum 1b to linear peptides of protein E of SARS-CoV Urbani” value was 0.7 and the “Binding of serum 1b to looped/cyclic peptides of protein E of SARS-CoV Urbani” value was 0.3. Further, in experiment [1], the “Binding of serum 2 to linear peptides of protein E of SARS-CoV Urbani” value was 0.3, the “Binding of serum 2 to looped/cyclic peptides of protein E of SARS-CoV Urbani” value worked out at 0.3, the “Binding of serum 6 to linear peptides of protein E of SARS-CoV Urbani” value was 0.7 and the “Binding of serum 6 to looped/cyclic peptides of protein E of SARS-CoV Urbani” value is 0.5. In addition, in experiment [1], the “Binding of serum 37 to linear peptides of protein E of SARS-CoV Urbani” value worked out at 0.7, the “Binding of serum 37 to looped/cyclic peptides of protein E of SARS-CoV Urbani” value was 0.4, the “Binding of serum 62 to linear peptides of protein E of SARS-CoV Urbani” value worked out at 0.7 and the “Binding of serum 62 to looped/cyclic peptides of protein E of SARS-CoV Urbani” value is on record as 0.7. In experiment [1], the “Binding of serum London to linear peptides of protein E of SARS-CoV Urbani” value amounted to 0.5, the “Binding of serum London to looped/cyclic peptides of protein E of SARS-CoV Urbani” value is on record as 0.5, the “Binding of serum SARS-green to linear peptides of protein E of SARS-CoV Urbani” value was determined as 0.4 and the “Binding of serum SARS-green to looped/cyclic peptides of protein E of SARS-CoV Urbani” value was found to be 0.4. In experiment [1], the “Binding of serum SARS-yellow to linear peptides of protein E of SARS-CoV Urbani” value is recorded as 0.1 and the “Binding of serum SARS-yellow to looped/cyclic peptides of protein E of SARS-CoV Urbani” value is reported as 0.5. Further, in experiment [2], the “Binding of a rabbit serum to linear peptides” value came out at 0.7 and the “Binding of a rabbit serum to looped peptides” value was determined as 0.0. Besides, in experiment [3], the “Binding of Control Serum Blood-Bank to Looped peptides” value is recorded as 0.6, the “Binding of Control serum Blood-bank to linear peptides” value is 0.5, the “Binding of Control serum LUMC to linear peptides” value is 0.6 and the “Binding of Control serum LUMC to looped peptides” value amounted to 0.5.
